Experimental findings from US20220211858A1, “TUBULAR SUPRAMOLECULAR POLYMERS” (priority 2019, published 2022) are described below.

Read-outs that look alike come from different tables or passages of the source.

Data set [1] relates to HT-29 cells. The conditions noted are these: free CPT 9 mg/kg i.p., n=5. From the text: Antitumor efficacy study of SAPDs at the same dose on a HT-29 tumor model. […] When the averaged tumor size reached 75-95 mm^3, mice were randomly divided into six groups. […] The tumor volumes and body weights were monitored and recorded every two or three days. The tumor volume was estimated by measuring the length and width with calipers and using the equation “tumor volume=(length×width^2)/2”. Mice were euthanized once the tumor volume reached 1000 mm^3.

Data set [2] can be described thus: Tolerability of free CPT in mice. The data set is classed as in vivo. The procedure: Due to its poor water solubility, free CPT is often given in a formulation containing a mixture of DMSO/ethanol/PEG-400/water at a volumetric ratio of 1:1:2:1 (24). […] We eventually identified an intraperitoneal injection of 4.5 mg/kg CPT to be a tolerable dosage for animal studies. In contrast, the MTD of TT 1 SPs in healthy athymic nude mice, identified in a dose escalation study through systemic administration, is within the range of 24-30 mg/kg (CPT equivalent) (FIG. 3D and FIG. 13). […] Four out of five mice survived for up to 37 d (9 mg/kg) and 43 d (15 mg/kg).

In data set [3] the test system is human glioblastoma U87 MG cells. In words: Antitumor efficacy study for systemic delivery, subcutaneous U87 MG tumor. The data set is classed as in vivo, athymic nude mice. The conditions noted are these: controls: free CPT 4.5 mg/kg i.p.; irinotecan 60 mg/kg i.p. The procedure: A total of 2×10^6 human glioblastoma U87 MG cells were subcutaneously injected into the right shoulder of athymic nude mice (8-9 weeks old). The mice were used for the efficacy study after three to four weeks when the tumor had reached about 190-250 mm^3 in size. […]. Water insoluble free CPT was dissolved/suspended in a mixture of DMSO/ethanol/PEG-400/water (1:1:2:1). CPT (4.5 mg/kg) and irinotecan (60 mg/kg) were administered by intraperitoneal injection, while freshly prepared TT 1 solutions of various doses were administered intravenously by tail vein injection every 4 days for a total of three doses (days 1, 5, and 9). […]. Tumor volumes were measured and recorded every other day. The body weights were measured and recorded every day or every other day. The tumor volume was determined by measuring the tumor in two dimensions with calipers and using the formula “tumor volume=(length×width^2)/2”. Each animal was euthanized once the tumor volume reached the predetermined end point size of 2000 mm^3.

Data set [4] relates to U87 MG human brain cancer cells. In words: cells. To be noted: U-87 MG, 48 h.
Method: (§1) The human brain cancer cell line U87 MG was a generous gift from Dr. Wirtz (ChemBE, JHU). DMEM (Invitrogen) containing 10% fetal bovine serum (FBS, Invitrogen) and 1% antibiotics (Invitrogen) was used for the culture of the U87 MG cells. Cancer cells were incubated at 37° C. in a humidified incubator (Oasis, Caron, Marietta, Ohio, USA) with an atmosphere of 5% CO2. […] U87 MG cells were seeded onto 96-well plates (5000 cells/well) and allowed to attach overnight. […] The stock solutions were then diluted with fresh medium to achieve final CPT concentrations of 0.1, 1, 10, 100, 500, 1000, 5000 and 10000 nM. After dilution, the nanotube-containing media were used to incubate cells immediately. Medium containing the same concentration of free CPT ranging from 0.1 to 10000 nM was also used to incubate the cells, with non-treated cells (solvent only) as the control group. In addition, irinotecan at the concentration of 0.1, 1, 5, 10, 50, 100 and 500 μM was employed as a second control. After 48 h incubation, the cell viability was evaluated using the SRB method according to the manufacturer's protocols (TOX-6, Sigma, St. Louis, Mo.).
Data set [5] in a line: Biodistribution study in U87 MG tumor-bearing mice. To be noted: nude, mouse, in vivo, 4.5 mg/kg, 4.5 mg/kg i.v., 1 hour after injection. The data set is classed as in vivo, nude mice. As for the experimental part: Mice bearing subcutaneous tumors were established by injecting 100 μL of a U87 MG suspension in serum-free medium (2×10^6 cells) into the right flank of the mice. When the tumor reached a size of −200 mm^3, the mice were randomly grouped and received one of the following 3 treatments via intravenous injection (n=18 for each group): free CPT (4.5 mg/kg), TT 1 (4.5 mg/kg), and TT 1 (15 mg/kg). Three mice from each group were euthanized at pre-determined time points (1, 2, 4, 8, 12, and 24 h). Plasma, major organs, and tumors were collected and stored at −80° C. for further analysis. To determine the amount of free CPT and TT 1 in the samples, 100 mg tumors were mixed with 900 μL acetonitrile (containing 0.1% TFA) and then homogenized using Precellys Evolution Super Homogenizer (Bertin Technologies, France) for 3×40 s (5,600 shakes/min). The resulting suspensions were centrifuged and the supernatants were collected. For plasma, 50 μL of sample was mixed with 450 μL acetonitrile (containing 0.1% TFA) and sonicated for 1 min. The supernatants were collected using centrifugation. All samples were filtered through a 0.22 μm membrane before analysis by a UPLC system (Waters ACQuity™ Ultra Performance LC) equipped with a reverse-phase column (ACQuity UPLC@BEH, C18, 1.7 μm 2.1×150 mm) and a fluorescence detector (ACQuity FLR, Ex/Em=362/430 nm). The column was flushed with a mixture of water (0.1% TFA) and acetonitrile (0.1% TFA) at 0.3 mL/min with the following gradient: 5% acetonitrile (0-1 min), 5-95% acetonitrile (1-5 min), 95% acetonitrile (5-8 min), 95-5% acetonitrile (8-9 min), and 5% acetonitrile (9-10 min). Peaks with retention times of 5.4 min (free CPT) and 6.9 min (TT 1) were monitored.

The test system of data set [6] is U87 MG human brain cancer cells. The conditions noted are these: 48 h.
Method: as §1
Data set [7] is described as follows: Zeta potential measurement. To be noted: 1×-DPBS buffer. Type of data set: physicochemical. The procedure: TT solutions of 200 μM in 1×-DPBS buffer (pH=7.4) were prepared by directly mixing identical volumes of a 400 μM aqueous TT solution and 2×-DPBS buffer (pH=7.4). In some embodiments, solutions at a concentration of 2 mM in PBS buffer (pH=7.4) were prepared and aged overnight prior to zeta potential measurement. TT solutions of 200 μM in 1×-DPBS buffer (pH=5.0) were prepared by mixing identical volumes of a 400 μM aqueous TT solution and 2×-DPBS buffer (pH=5.0), which was pretreated with 6 M HCl. The zeta potential measurements were performed on a Zetasizer Nano ZS90 (Malvern Instruments Ltd., UK). The prepared solutions were loaded in capillary cells and equilibrated for 2 min prior to measurement. The average values and their standard deviations are calculated from three replicate measurements. The zeta potential of the assembled structures was obtained by measuring the electrophoretic movement of the nanostructures under the applied electric field, where the movement velocity is determined by phase analysis light scattering. Variations of the zeta potential value over time were determined by measuring the solutions at different aging time points (1, 2, 4 and 7 days) and are plotted in FIG. 10.

Data set [8] can be described thus: TEM / cryo-TEM imaging of self-assembled nanostructures (dimensions). Type of data set: physicochemical. The conditions noted are these: self-assembled nanotubes in water, 200 μM, n>40. As for the experimental part: About 200 μM stock solutions of corresponding TTs in water were prepared by dissolution of the lyophilized powders. After aging overnight, TEM samples were prepared by depositing 7 μL of the appropriate solution onto a carbon-coated copper grid (Electron Microscopy Services, Hatfield, Pa., USA), wicking away the excess solution with a small piece of filter paper. Next, 7 μL of a 2 wt % uranyl acetate aqueous solution was deposited on the surface for 30 seconds, wicking away the excess solution with filter paper. The grids were then air-dried overnight at room temperature prior to imaging. Bright-field TEM imaging was performed using an FEI Tecnai 12 TWIN Transmission Electron Microscope operated at an acceleration voltage of 100 kV. All TEM images were acquired by a SIS Megaview III wide-angle CCD camera or 16 bit 2K×2K FEI Eagle bottom mount camera.
Cryo-TEM imaging was performed using higher sample concentrations of 800 μM (compared with 200 μM for conventional TEM imaging). Extended imaging times can result in damage to the vitreous ice film caused by the electron beam and so higher concentrations can allow a more rapid visualization that reduces this likelihood. About 6 μL of the appropriate solution was dropped onto a lacey carbon-film-supported TEM copper grid (Electron Microscopy Services, Hatfield, Pa., USA). All the TEM grids used for cryo-TEM imaging were pretreated with plasma air to render the lacey carbon film hydrophilic. A thin film of the sample solution was produced using a Vitrobot with a controlled humidity chamber (FEI). After loading of the sample solution, the lacey carbon grid was blotted using preset parameters and plunged instantly into a liquid ethane reservoir precooled by liquid nitrogen. The vitrified samples were then transferred to a cryo-holder and cryo-transfer stage that was cooled by liquid nitrogen. To prevent sublimation of vitreous water, the cryo-holder temperature was maintained below −170° C. during the imaging process. All images were recorded by a Tecnai 12 microscope with a cryo-holder, and the images were acquired by a 16 bit 2K×2K FEI Eagle bottom mount camera.
Self-Assembly of SAPDs from TT1. To study the self-assembly behavior of the SAPDs, we directly dissolved the lyophilized powders in deionized water at a concentration of 2 mM and neutral pH.

Data set [9] in a line: Gel release of TT 2 nanotube hydrogel. To be noted: 10 mM in 1×-DPBS, 37° C., over 31 days. Type of data set: physicochemical. As for the experimental part: TT 2 was dissolved in water and hydrogel formation triggered by the addition of 10×-DPBS to give a final TT 2 concentration of 10 mM in 1×-DPBS. 200 μL of the hydrogel was placed at the bottom of centrifuge tube and allowed to re-gel overnight. Three replicate experiments were prepared together and incubated at 37° C. Fresh 1×-DPBS (300 μL) was layered on top of the hydrogel and was refreshed at predetermined time points: 1, 2, 4, 7, 10, 13, 16, 19, 22, 25, 28, and 31 days. The samples were frozen with liquid nitrogen and stored at −30° C. until analysis. The amount of TT 2 in the top DPBS layer was determined by analytical RP-HPLC using the conditions described in the previous paragraph. The cumulative release of TT 2 from its hydrogels was calculated and plotted as a percentage of the total amount of hydrogel. The conjugate was seen to be released almost linearly from the hydrogel with ˜10% of the prodrugs being released over the 31-day period.

Data set [10] has as its system U87 MG human glioblastoma. The data set can be described thus: Antitumor efficacy study for local delivery (intratumoral TT 2 hydrogel). Type of data set: in vivo, athymic nude mice. The conditions noted are these: 10 mM hydrogel, 30 μL intratumoral. As for the experimental part:
The hydrogel formation of TT 2 in vivo was investigated through subcutaneous injection of a TT 2 gel. […] The tumor model used in local delivery is the same U87 MG human glioblastoma line used in the systemic delivery study described above. Mice were randomly selected (n=7) and treated with TT 2 hydrogel at a fixed dose (10 mM, 30 μL) through intratumoral injection. Tumor volumes and body weights were measured and recorded every other day. The tumor volume was determined by measuring the tumor in two dimensions with calipers and using the formula “tumor volume=(length×width^2)/2”. Each animal was euthanized once the tumor […] reached the predetermined end point size of 2000 mm^3.
The antitumor efficacy of TT 2 hydrogel was then evaluated in a subcutaneous U87 MG xenograft model via intratumoral injection of a 10 mM TT 2 SP hydrogel (30 μL). All seven mice studied experienced tumor regression with a minimum mean tumor volume of 36 mm^3 at day 25 and survived for more than 45 days (FIG. 3K).

By MTD is commonly meant the highest dose tested that stayed within the study's limit of toxicity. As usually defined, the IC50 is the midpoint of a concentration-inhibition curve. A lower IC50 goes with inhibition by little substance. With `CC[C@@]1(O)C(=O)OCc2c1cc1n(c2=O)Cc2cc3ccccc3nc2-1` [CPT, Camptothecin, reference compound], the “treatment outcome (deaths)” value in data set [1] is on record as “death of all five mice after the second dose”. In addition, the “outcome of intravenous administration” value in [2] (9 mg/kg i.v., DMSO/ethanol/PEG-400/water formulation) is given as “immediate death”. Besides, the tolerable dosage in [2] (intraperitoneal injection) is on record as 4.5 mg/kg. Moreover, the MTD in data set [2] (mouse, in vivo, intraperitoneal) is approximately 5 mg/kg. The median survival in data set [3] worked out at 17 days. The IC50 in data set [4] amounted to 62 nM. Besides, the concentration at 1 h turned out to be 37 ng/g in [5] (read-out: drug concentration in plasma) and 92 ng/g in data set [5] (read-out: drug concentration in tumor).
`CC[C@]1(OC(=O)OCCSSC[C@@H](NC(C)=O)C(=O)N[C@@H](CCCCNC(=O)[C@@H](CSSCCOC(=O)O[C@]2(CC)C(=O)OCc3c2cc2n(c3=O)Cc3cc4ccccc4nc3-2)NC(C)=O)C(=O)N[C@@H](CCCCN)C(=O)N[C@@H](CCCCN)C(N)=O)C(=O)OCc2c1cc1n(c2=O)Cc2cc3ccccc3nc2-1` [TT 2] came in with an IC50 in data set [6] of 123 nM. Further, the ζ-Potential in data set [7] (pH 5.0, 200 μM) is reported as 31.8 mV; in data set [7] (pH 7.4, 200 μM), 22.1 mV. In data set [8], the “Diameters measured by conventional TEM” value came out at 8.1 ± 0.6 nm. The “cumulative release of TT 2 from hydrogel” value in data set [9] is on record as approximately 10%. Moreover, in data set [10], the “mice with complete tumor regression” value is listed as “Four out of seven”. The “survival to end point of tumor-free mice” value in data set [10] is “around 140 d”. Moreover, in data set [10] (day 25, n=7), the “minimum mean tumor volume” value is 36 mm^3. Also, the “survival of all treated mice” value in data set [10] (n=7) was “more than 45 days”.
Turning to `CC[C@]1(OC(=O)OCCSSC[C@@H](NC(C)=O)C(=O)N[C@@H](CCCCNC(=O)[C@@H](CSSCCOC(=O)O[C@]2(CC)C(=O)OCc3c2cc2n(c3=O)Cc3cc4ccccc4nc3-2)NC(C)=O)C(=O)N[C@@H](CCC(=O)O)C(=O)N[C@@H](CCC(=O)O)C(N)=O)C(=O)OCc2c1cc1n(c2=O)Cc2cc3ccccc3nc2-1` [TT 3], the “ζ-potential at pH 7.4 versus pH 5.0” value in [7] is “more negative ζ-potentials at pH 7.4 than 5.0”. Also, the “Diameters measured by conventional TEM” value in [8] is on record as 8.4 ± 0.9 nm.
As for `CC[C@]1(OC(=O)OCCSSC[C@@H](NC(C)=O)C(=O)N[C@@H](CCCCNC(=O)[C@@H](CSSCCOC(=O)O[C@]2(CC)C(=O)OCc3c2cc2n(c3=O)Cc3cc4ccccc4nc3-2)NC(C)=O)C(=O)N[C@@H](CCCCN)C(=O)N[C@@H](CCC(=O)O)C(N)=O)C(=O)OCc2c1cc1n(c2=O)Cc2cc3ccccc3nc2-1` [TT 4], the ζ-Potential in data set [7] (pH 5.0, 200 μM) is listed as −2.3 mV; in [7] (pH 7.4, 200 μM) it was −18.8 mV. Moreover, the “Diameters measured by conventional TEM” value in data set [8] worked out at 8.3 ± 0.9 nm.
Take `CC[C@]1(OC(=O)OCCSSC[C@@H](NC(C)=O)C(=O)N[C@@H](CCCCNC(=O)[C@@H](CSSCCOC(=O)O[C@]2(CC)C(=O)OCc3c2cc2n(c3=O)Cc3cc4ccccc4nc3-2)NC(C)=O)C(=O)N[C@H](CCCCNC(=O)CN2CCN(CC(=O)O)CCN(CC(=O)O)CCN(CC(=O)O)CC2)C(N)=O)C(=O)OCc2c1cc1n(c2=O)Cc2cc3ccccc3nc2-1` [TT 5]: the “ζ-potential at pH 7.4 versus pH 5.0” value in data set [7] is on record as “more negative ζ-potentials at pH 7.4 than 5.0”. The “Diameters measured by conventional TEM” value in data set [8] came out at 8.4 ± 0.9 nm.
